# Reference: US20180153872A1, “HETEROARYL CARBONITRILES FOR THE TREATMENT OF DISEASE” (OPKO Health, Inc., priority 2015, published 2018)
# Where two headings read alike, the source gives them in different places.
# Assays:
# NK1 receptor [1] = molecular target: T1, NK1 receptor (Meriones unguiculatus, UniProt Q5DUB1); experiment: NK1 receptor radioligand binding, gerbil; settings: no unit, Ki in nM
# Procedure: (§1) SCH900978 was also tested for NK2 and NK3 receptor activity and in 106 other receptors, transporters, enzymes and ion channels and had greater than 1000 fold lower affinity for these than for the NK1 receptor.
# NK2 receptor = molecular target: T2, NK2 receptor (Homo sapiens, UniProt P21452); experiment: NK2 receptor affinity; assay type: binding
# T2 sequence (P21452 1-398): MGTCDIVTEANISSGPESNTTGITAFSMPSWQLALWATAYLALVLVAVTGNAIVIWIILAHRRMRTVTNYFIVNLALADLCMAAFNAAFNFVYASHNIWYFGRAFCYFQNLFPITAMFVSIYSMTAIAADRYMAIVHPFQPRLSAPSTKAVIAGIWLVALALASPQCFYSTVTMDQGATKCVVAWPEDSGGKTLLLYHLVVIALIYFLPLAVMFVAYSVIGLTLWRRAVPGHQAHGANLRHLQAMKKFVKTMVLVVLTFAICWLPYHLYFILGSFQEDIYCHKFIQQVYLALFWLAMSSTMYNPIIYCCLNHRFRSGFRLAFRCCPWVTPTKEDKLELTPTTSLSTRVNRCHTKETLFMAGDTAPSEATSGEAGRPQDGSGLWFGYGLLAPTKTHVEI
# Text: A compound of formula I (also designated SCH 900978) is a potent, selective, competitive neurokinin-1 (NK-1) receptor antagonist that is effective as an oral administered drug for the treatment of cough and meets this unmet medical need. In addition, this drug is effective for the treatment of overactive bladder (OAB) and other selected indications including major depression and alcohol dependency. […] The present invention comprises a compound of formula I having an effective dose for 90% inhibition [ED90]=0.2 mg/kg as determined in an in vivo pharmacodynamic model of NK1 receptor activity (gerbil foot thumping).
# as §1
# hERG gene current = hERG gene current (Homo sapiens, UniProt Q12809); experiment: hERG current inhibition; assay type: cell-based
# Procedure: A series of in vitro and in vivo studies examined the effects of SCH900978 on cardiovascular, respiratory and CNS functions. No adverse effects were observed. The NOAEL was ≥25 mg/kg in male rats, ≥12.5 mg/kg in female rats and ≥10 mg/kg in male cynomolgus monkeys; each dose was the highest dose tested.
# Brain penetration, rats = assay type: in vivo, rat
# Procedure: Urinary excretion was also substantial (approximately 20%).
# The extent of brain penetration by SCH 900978 was evaluated after oral administration of SCH 900978 amorphous hydrochloride to female gerbils (0.1 mg/kg), male Sprague Dawley rats (5 mg/kg), and male guinea pigs (0.3 mg/kg).
# [2] = Rising single-dose safety, tolerability and pharmacokinetics study in healthy human volunteers; assay type: in vivo
# Procedure: A randomized, placebo-controlled, third party blind (within dose level), rising, single-dose escalation study to evaluate the safety, tolerability and pharmacokinetics of SCH900978 in healthy human volunteers was conducted and completed. […] Six subjects received placebo. […] Food had no effect on the oral bioavailability of SCH900978. […] Tmax occurred within 0-4 hours at each dosage strength. Table 2 below provides the mean SCH900978 pharmacokinetic parameters following administration of a single oral dose of 25 mgs of SCH900978 capsule or solution to healthy volunteers.
# Table 3 below provides the mean SCH900978 pharmacokinetic parameters following administration of a single oral dose of 50 mgs of SCH900978 to healthy volunteers under fasted and fed conditions.
# Solubility = assay type: physicochemical; settings: pH 7, aqueous buffer
# Text: (§2) The present invention comprises a compound having activity in mammalian cough models and is thus useful in the treatment of cough in mammals, including humans, after oral administration. The present invention comprises an oral formulation of a compound of formula I and pharmaceutically acceptable excipients selected from the group consisting of diluents, binders, disintegrants, wetting agents and lubricants. In a preferred embodiment the pharmaceutical composition comprises a compound of formula I (or IIa-IIc) or II and lactose monohydrate, microcrystalline cellulose, povidone, crospovidone, poloxamer 188 and magnesium stearate. The preferred oral form is a capsule. The amount of active ingredient in the capsule or oral dosage form may range from 1 mg to 250 mgs with a preferred range of 10-150 mg with a more preferred range of 20-100 mg per day in humans. The present invention also relates to an NK-1 antagonist (e.g., Formula II) having a half-life of approximately 10-13 days. The present invention further relates to a method of treating pruritus comprising administering a pharmaceutically effective amount of a compound of formula II having a half-life of 10-13 days to a patient in need of treatment thereof. […] The measured onset melting temperature as measured by differential scanning calorimetry (DSC) is 168.9. […]
# log D, octanol/water = assay type: physicochemical; settings: pH 7.4, octanol/water system
# Text: as §2
# NK1 receptor [3] = molecular target: T1, NK1 receptor; experiment: Gerbil foot thumping (in vivo pharmacodynamic model of NK1 receptor activity); set-up: from tissue; host or cells: living gerbil (central NK1 receptors)
# Text: Intracerebroventricular administration of NK1 receptor agonists to gerbils induces vigorous thumping in the hind feet. This response can be blocked by NK1 receptor antagonists.
# [4] = 25 mg solution, single oral dose, n = 5
# [5] = 50 mg fasted, single oral dose, n = 6
# [6] = 50 mg fed, single oral dose, n = 6
# T1 sequence (Q5DUB1 whole entry): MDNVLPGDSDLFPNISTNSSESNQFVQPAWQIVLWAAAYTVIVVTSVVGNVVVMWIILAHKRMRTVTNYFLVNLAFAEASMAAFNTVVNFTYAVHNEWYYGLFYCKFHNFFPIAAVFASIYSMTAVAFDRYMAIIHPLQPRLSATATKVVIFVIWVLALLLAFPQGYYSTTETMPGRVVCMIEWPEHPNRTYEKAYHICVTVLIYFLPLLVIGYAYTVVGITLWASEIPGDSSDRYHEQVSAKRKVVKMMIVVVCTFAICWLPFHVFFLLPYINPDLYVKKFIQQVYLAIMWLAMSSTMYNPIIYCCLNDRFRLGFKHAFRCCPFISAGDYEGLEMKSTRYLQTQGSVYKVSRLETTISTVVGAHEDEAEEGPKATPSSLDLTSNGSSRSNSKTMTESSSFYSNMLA
# Chain of hERG gene current (Q12809 whole entry): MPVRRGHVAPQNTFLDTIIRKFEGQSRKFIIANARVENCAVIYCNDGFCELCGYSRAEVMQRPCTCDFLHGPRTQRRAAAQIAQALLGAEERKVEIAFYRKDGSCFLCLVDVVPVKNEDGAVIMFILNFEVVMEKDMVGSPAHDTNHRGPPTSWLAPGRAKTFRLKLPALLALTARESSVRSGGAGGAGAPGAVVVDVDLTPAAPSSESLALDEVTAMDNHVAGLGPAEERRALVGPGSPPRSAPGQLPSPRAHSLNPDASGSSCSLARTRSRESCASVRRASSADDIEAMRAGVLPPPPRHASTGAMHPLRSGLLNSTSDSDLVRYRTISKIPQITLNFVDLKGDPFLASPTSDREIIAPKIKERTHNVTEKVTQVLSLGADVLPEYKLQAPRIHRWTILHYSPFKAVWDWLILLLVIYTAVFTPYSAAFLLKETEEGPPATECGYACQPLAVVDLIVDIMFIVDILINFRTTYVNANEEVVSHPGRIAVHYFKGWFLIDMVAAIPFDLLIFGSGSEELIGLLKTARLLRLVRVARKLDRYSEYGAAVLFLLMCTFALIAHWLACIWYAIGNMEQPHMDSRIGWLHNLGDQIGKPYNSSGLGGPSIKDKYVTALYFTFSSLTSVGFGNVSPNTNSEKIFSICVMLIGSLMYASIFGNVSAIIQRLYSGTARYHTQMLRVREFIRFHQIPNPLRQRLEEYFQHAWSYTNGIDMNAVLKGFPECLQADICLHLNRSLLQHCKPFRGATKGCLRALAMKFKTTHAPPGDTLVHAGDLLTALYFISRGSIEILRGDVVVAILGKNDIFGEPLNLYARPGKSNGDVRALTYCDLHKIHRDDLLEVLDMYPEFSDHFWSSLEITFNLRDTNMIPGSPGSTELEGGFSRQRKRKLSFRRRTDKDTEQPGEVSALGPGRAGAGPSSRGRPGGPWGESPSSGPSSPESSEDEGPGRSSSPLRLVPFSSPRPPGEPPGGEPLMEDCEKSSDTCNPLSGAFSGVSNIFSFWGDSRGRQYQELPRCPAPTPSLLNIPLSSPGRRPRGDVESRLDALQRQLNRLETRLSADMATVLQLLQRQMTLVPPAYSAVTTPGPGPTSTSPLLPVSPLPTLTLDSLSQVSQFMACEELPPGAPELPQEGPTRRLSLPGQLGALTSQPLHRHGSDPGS
smiles,measurement,setting,value
"C[C@@H](OC[C@@]1(c2ccccc2)CC[C@](C#N)(n2cn[nH]c2=O)CN1)c1cc(C(F)(F)F)cc(C(F)(F)F)c1 [Compound 42, (3 S,6S)-6-({(1R)-1-[3,5-bis(trifluoromethyl)phenyl]ethoxy}methyl)-3-(5-oxo-1,5dihydro-4H-1,2,4-triazol-4-yl)-6-phenylpiperidine-3-carbonitrile]",Ki,NK1 receptor [1],0.2 nM
same,Ki,NK2 receptor,> 1000 nM
same,fold lower affinity than for the NK1 receptor,NK2 receptor; NK2 vs NK1,greater than 1000 fold
same,IC50,hERG gene current,860 nM
same,crossing of the blood brain barrier,"Brain penetration, rats",readily crossed the blood brain barrier
same,Tf Mean/% CV,"[2]; 25 mg capsule, single oral dose, n = 5",312^b/0^ hr
same,Cmax Mean/% CV,"[2]; 25 mg capsule, single oral dose, n = 6",213/27
same,AUC(tf) Mean/% CV,[2]; [4],29900/22
same,Tf Mean/% CV,[2]; [4],312/0
same,Cmax Mean/% CV,"[2]; 25 mg solution, single oral dose, n = 5, adjusted for carryover",301/21
same,AUC(l) Mean/% CV,[2]; [5],88700/23
same,AUC(tf) Mean/% CV,[2]; [5],59700/24
same,Cmax Mean/% CV,[2]; [5],388/32
same,T1/2 Mean/% CV,[2]; [5],309/32
same,Tf Mean/% CV,[2]; [5],504/0
same,AUC(tf) Mean/% CV,[2]; [6],69000/19
same,Tf Mean/% CV,[2]; [6],504/0
same,Cmax Mean/% CV,"[2]; 50 mg fed, single oral dose, n = 6, adjusted for carryover",366/23
same,"bioavailability, solution versus capsule oral formulations",[2]; healthy volunteers,comparable
same,effect of food on oral bioavailability,[2]; healthy volunteers,no effect
same,safety and tolerability,"[2]; healthy volunteers, oral doses up to 50 mg",safe and well tolerated
same,absorption and elimination,"[2]; healthy volunteers, single oral doses 10, 25, 50 mg",rapidly absorbed and slowly eliminated
same,AUC,"[2]; human, plasma, oral, 10 mg to 200 mg dose, after a single dose, read-out: AUC plasma blood level",19000 to 352000 ng·h/mL
same,half-life,"[2]; human, plasma, oral, human, read-out: t1/2 (half-life)",10 to 13 days
same,Cmax,"[2]; human, plasma, oral, 10 mg to 200 mg dosage range, based on values from volunteers given 10, 25 and 50 mg, read-out: Cmax (either calculated or estimated)",103 to 1480 ng/mL
same,Tmax,"[2]; human, plasma, oral, each dosage strength 10, 25, 50 mg",0 to 0.167 days
same,AUC,"[2]; human, plasma, po, 25 mg, 25 mg capsule, single oral dose, n = 4, read-out: AUC(l) Mean/% CV",42900 ng·h/mL
same,half-life,"[2]; human, plasma, po, 25 mg, 25 mg capsule, single oral dose, n = 4, read-out: T1/2 Mean/% CV (converted)",9.92 days
same,AUC,"[2]; human, plasma, po, 25 mg, 25 mg capsule, single oral dose, n = 5, read-out: AUC(tf) Mean/% CV",25700 ng·h/mL
same,AUC,"[2]; human, plasma, po, 25 mg, 25 mg solution, single oral dose, n = 4, read-out: AUC(l) Mean/% CV",52600 ng·h/mL
same,half-life,"[2]; human, plasma, po, 25 mg, 25 mg solution, single oral dose, n = 4, read-out: T1/2 Mean/% CV (converted)",10.5 days
same,AUC,"[2]; human, plasma, po, 50 mg, 50 mg fed, single oral dose, n = 4, read-out: AUC(l) Mean/% CV",97000 ng·h/mL
same,half-life,"[2]; human, plasma, po, 50 mg, 50 mg fed, single oral dose, n = 4, read-out: T1/2 Mean/% CV (converted)",13.2 days
same,exposure (Cmax and AUC) versus dose,"[2]; single oral doses 10, 25, 50 mg",dose related
same,solubility,Solubility,1.8 µg/mL
same,logD,"log D, octanol/water",4.5
same,duration of significant inhibition of NK1 agonist-induced foot thumping,NK1 receptor [3]; 0.3 mg/kg oral dose,up to 48 hours
same,"ED90, effective dose for 90% inhibition of foot thumping","NK1 receptor [3]; oral, six hours before testing, GR 73632-induced",0.2 mg/kg
